Data from ChEMBL document CHEMBL1201862, “PubChem BioAssay data set” (2004).
Active and inactive are the calls of the source.

Legend:
[1] = target: 26S proteasome non-ATPase regulatory subunit 14 (Homo sapiens, UniProt O00487); experiment: inhibition of proteasome subunit RPN11 – biochemical, fluorescence polarization, uHTS hits, confirmation (AID 602368); type: functional
[2] = target: 72 kDa type IV collagenase (Homo sapiens, UniProt P08253); experiment: Dose Response validation of uHTS RPN11 inhibitor hits using a MMP-2 Fluorescence assay.; type: functional
Sequence of 72 kDa type IV collagenase (P08253 whole entry): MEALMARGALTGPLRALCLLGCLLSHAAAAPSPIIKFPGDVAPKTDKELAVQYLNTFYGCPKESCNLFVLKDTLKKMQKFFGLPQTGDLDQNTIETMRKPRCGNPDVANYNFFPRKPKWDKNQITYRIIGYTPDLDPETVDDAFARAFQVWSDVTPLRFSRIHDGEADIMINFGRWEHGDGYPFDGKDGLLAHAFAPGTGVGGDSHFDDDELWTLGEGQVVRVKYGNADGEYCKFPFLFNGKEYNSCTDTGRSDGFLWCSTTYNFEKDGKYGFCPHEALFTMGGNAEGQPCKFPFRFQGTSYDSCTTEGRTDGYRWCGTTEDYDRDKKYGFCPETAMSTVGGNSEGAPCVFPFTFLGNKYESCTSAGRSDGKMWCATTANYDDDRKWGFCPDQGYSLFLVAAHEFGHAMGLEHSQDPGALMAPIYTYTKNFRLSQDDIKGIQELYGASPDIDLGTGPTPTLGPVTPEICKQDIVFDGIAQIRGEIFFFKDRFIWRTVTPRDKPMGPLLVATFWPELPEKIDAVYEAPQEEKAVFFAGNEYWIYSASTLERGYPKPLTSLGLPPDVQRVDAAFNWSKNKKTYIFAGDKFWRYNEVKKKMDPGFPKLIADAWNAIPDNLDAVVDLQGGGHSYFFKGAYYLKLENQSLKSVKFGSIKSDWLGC

Prothrombin = Prothrombin (Bos taurus, UniProt P00735); experiment: thrombin inhibition, dose response, biochemical, fluorescence polarization, uHTS hits (AID 602369); type: functional
[3] = target: T1, High affinity choline transporter 1 (Homo sapiens, UniProt Q9GZV3); experiment: CHT inhibitors, dose response, cell-based, 5-point CRC, membrane potential dye (AID 504840); type: functional
T1 sequence (Q9GZV3 whole entry): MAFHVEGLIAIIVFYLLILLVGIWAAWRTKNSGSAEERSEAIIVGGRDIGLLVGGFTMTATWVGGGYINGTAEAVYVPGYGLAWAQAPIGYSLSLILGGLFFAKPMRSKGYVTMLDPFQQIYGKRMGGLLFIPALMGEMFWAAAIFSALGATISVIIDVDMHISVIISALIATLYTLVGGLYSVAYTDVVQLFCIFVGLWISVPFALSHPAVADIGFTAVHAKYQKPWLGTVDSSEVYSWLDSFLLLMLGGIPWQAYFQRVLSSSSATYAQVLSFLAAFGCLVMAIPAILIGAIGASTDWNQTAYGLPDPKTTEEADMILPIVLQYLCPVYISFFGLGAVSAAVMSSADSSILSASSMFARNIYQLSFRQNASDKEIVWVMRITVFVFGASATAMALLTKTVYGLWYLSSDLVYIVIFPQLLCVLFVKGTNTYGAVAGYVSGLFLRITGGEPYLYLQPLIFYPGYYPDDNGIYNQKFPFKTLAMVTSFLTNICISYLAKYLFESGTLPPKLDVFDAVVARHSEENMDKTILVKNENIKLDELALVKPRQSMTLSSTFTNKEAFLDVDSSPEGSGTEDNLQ

Large T antigen = Large T antigen (Simian virus 40, UniProt P03070); type: functional, Betapolyomavirus macacae;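 further: Confirmatory-stage PubChem screen for compounds that inhibit SV40 T antigen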
Sequence of Large T antigen (P03070 whole entry, the tested form may be a part): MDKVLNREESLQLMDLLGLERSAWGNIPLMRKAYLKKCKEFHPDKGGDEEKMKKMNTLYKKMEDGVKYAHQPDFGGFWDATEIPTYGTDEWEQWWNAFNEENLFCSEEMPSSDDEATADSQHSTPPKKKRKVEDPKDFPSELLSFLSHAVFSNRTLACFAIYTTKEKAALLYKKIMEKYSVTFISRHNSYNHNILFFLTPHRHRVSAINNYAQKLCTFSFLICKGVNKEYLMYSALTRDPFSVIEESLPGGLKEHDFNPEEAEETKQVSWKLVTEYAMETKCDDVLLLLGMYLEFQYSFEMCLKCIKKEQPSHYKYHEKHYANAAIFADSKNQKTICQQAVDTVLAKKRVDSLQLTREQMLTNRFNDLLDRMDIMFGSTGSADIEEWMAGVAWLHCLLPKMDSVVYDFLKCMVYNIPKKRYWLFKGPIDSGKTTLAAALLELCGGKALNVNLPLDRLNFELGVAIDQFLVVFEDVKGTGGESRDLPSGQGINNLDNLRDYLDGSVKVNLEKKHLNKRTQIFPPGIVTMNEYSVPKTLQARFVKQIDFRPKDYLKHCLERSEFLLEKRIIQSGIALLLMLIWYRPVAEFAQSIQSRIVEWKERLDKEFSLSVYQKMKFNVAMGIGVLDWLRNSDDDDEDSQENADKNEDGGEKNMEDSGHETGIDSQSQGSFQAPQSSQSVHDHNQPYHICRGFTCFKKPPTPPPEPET

[4] = target: T2, RNA-binding protein pos-1 (Caenorhabditis elegans, UniProt G5EF15); experiment: inhibitors of POS-1/mex-3 RNA binding, dose response, biochemical, fluorescence polarization (AID 1964);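 further: purified POS-1 fused to maltose binding protein made in E. coli; potency of compounds blocking POS-1 binding to fluorescent RNA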
T2 sequence (G5EF15 whole entry): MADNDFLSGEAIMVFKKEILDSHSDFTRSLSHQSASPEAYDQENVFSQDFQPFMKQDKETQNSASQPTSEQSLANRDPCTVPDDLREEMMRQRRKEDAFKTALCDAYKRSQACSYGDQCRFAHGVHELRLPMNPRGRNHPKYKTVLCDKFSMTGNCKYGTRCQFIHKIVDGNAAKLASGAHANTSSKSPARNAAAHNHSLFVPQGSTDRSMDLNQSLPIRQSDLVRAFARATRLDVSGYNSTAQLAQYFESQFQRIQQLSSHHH

[5] = target: T3, DNA repair protein RAD52 homolog (Homo sapiens, UniProt P43351); type: functional, biochemical
T3 sequence (P43351 whole entry): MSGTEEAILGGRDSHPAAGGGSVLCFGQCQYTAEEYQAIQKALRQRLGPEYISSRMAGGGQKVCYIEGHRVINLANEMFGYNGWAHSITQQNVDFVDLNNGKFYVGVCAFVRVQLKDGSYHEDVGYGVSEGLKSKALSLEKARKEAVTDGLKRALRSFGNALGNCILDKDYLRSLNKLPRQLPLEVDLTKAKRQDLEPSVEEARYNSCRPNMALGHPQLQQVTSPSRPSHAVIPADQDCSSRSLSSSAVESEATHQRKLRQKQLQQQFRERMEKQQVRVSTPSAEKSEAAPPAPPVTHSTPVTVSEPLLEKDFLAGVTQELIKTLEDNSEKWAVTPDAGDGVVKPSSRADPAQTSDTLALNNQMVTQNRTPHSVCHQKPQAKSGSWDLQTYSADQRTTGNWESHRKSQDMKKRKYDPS

[6] = target: T4, Zinc finger protein mex-5 (Caenorhabditis elegans, UniProt Q9XUB2); experiment: MEX-5/TCR-2 RNA interaction inhibitors, dose response, biochemical, C. elegans, fluorescence polarization (AID 1960)
T4 sequence (Q9XUB2 whole entry): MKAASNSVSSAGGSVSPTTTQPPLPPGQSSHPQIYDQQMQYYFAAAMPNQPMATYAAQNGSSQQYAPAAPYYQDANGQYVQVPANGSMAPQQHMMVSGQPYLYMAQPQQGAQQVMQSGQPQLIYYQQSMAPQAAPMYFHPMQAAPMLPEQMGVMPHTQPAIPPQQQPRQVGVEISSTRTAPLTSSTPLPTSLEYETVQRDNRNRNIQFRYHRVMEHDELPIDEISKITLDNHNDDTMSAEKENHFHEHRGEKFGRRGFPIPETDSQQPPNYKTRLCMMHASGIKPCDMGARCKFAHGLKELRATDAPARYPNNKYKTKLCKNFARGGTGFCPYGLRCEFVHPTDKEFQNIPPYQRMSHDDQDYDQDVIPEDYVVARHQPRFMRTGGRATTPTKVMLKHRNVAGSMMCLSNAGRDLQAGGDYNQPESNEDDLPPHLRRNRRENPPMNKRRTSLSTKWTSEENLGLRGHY

[7] = target: FAD-linked sulfhydryl oxidase ALR (Homo sapiens, UniProt P55789); experiment: inhibitors of human ALR sulfhydryl oxidase, dose response, biochemical, H2O2 detection, luminescence, cherry-pick (AID 493248)
Sequence of FAD-linked sulfhydryl oxidase ALR (P55789 whole entry): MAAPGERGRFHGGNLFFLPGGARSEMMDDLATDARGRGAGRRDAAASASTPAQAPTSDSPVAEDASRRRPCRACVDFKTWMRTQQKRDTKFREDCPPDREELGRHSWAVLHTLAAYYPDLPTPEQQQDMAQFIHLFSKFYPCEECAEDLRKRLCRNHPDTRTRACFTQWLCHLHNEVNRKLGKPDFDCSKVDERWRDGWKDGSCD

[8] = inhibitors of Vif binding to APOBEC3G peptide, primary screen, biochemical, TR-FRET, GST-Vif 1-94, biotin-A3G peptide, dose response retest (AID 1117319); type: functional;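 further: TR-FRET signal of purified GST-Vif binding a biotinylated A3G peptide; inhibitors lower the FRET signal by blocking Vif and A3G binding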
BJ [9] = experiment: cytotoxicity toward BJ-TERT-LT-ST fibroblasts, dose response, cell-based, RAS-independent, luminescence (AID 1935); type: functional; settings: Homo sapiens;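 further: BJ fibroblasts immortalized with TERT plus LT and ST oncogenes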
BJ [10] = experiment: cells; type: functional, cell-based; settings: Homo sapiens
[11] = cytotoxicity toward DRD oncogenic fibroblasts, dose response, cell-based, non-viral oncogenic, luminescence (AID 1934); type: functional; settings: Homo sapiens
BJ [12] = experiment: cytotoxicity toward BJ-TERT fibroblasts, dose response, cell-based, RAS-independent, luminescence (AID 1933); type: functional; settings: Homo sapiens
cells = type: functional
[13] = target: T5, Ubiquitin-conjugating enzyme E2 N (Homo sapiens, UniProt P61088); type: functional;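 further: Dose-response confirmation in a TR-FRET assay detecting UBC13-driven polyubiquitin chain formation, inhibition measured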
T5 sequence (P61088 whole entry): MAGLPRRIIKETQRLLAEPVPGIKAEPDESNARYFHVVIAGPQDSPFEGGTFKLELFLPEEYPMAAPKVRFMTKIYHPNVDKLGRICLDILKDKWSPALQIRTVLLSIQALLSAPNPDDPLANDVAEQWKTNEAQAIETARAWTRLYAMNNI

Sequence of 26S proteasome non-ATPase regulatory subunit 14 (O00487 whole entry): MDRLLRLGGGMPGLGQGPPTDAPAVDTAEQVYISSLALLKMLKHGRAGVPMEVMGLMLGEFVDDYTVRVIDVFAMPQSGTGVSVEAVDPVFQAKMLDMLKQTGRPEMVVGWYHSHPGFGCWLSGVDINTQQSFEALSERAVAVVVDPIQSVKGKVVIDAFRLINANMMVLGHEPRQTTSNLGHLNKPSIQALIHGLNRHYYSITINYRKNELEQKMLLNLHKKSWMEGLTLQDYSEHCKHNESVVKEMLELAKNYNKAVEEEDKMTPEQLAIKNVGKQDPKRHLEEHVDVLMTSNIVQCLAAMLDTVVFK

Which IC50 [1] does the source give for `CCc1ccc(NC(=O)CCc2nc3sc4c(c3c(=O)[nH]2)CCCC4)cc1` here?
The IC50 was 37.6 µM (active).

What about the IC50 [2] of the same compound?
Its IC50 is > 100 µM (inactive).

What about the IC50 (Prothrombin) of the same compound?
Its IC50 is 35.9 µM (active).

For `Cc1ccc(CSc2nnc(CCNC(=O)OC(C)(C)C)o2)cc1`, which IC50 [3] is on record?
The IC50 was 12.9 µM (active).

Which IC50 (Large T antigen) does the source give for `Nc1ccc2[nH]c(CCCO)nc2c1` here?
Its IC50 is 21.2 µM (active).

And the EC50 [4]?
The EC50 was 36.7 µM (active).

And the AC50 [5]?
The AC50 was 8.48 µM (active).

What about the EC50 [6] of the same compound?
The EC50 was 4.35 µM (inconclusive).

What does the source list for `CC(=O)N1CCN(c2ccc(NCc3cccc4ccccc34)cc2)CC1`?
IC50 (Large T antigen): 10.1 µM (active); AC50 [7]: 1.36 µM (active)

For `CC(=O)Nc1ccc(NC(=O)c2sc3nc4c(c(-c5ccc(C)cc5)c3c2N)CCC4)cc1`, which IC50 [8] is on record?
Its IC50 is > 100 µM (active).

Which results are given for `CCOc1ccccc1CNS(=O)(=O)c1ccc(-c2cnc(C3CC3)o2)cc1`?
EC50 (BJ [9]): 0.703 µM (inconclusive); EC50 (BJ [10]): 46.3 µM (active); EC50 [11]: 19.7 µM (inconclusive); EC50 (BJ [12]): 0.535 µM (inconclusive)

Which AC50 [7] does the source give for `Oc1ccc(Br)cc1CN1CCCCCCC1` here?
Its AC50 is 7.63 µM (active).

For `COc1ccc(C(C(C(=O)c2cccs2)N2CCOCC2)N2CCOCC2)cc1OC` (stereo not given), which IC50 [8] is on record?
Its IC50 is > 100 µM (active).

Which IC50 [8] does the source give for `c1coc(CNc2nc(-c3cccs3)cs2)c1` here?
The IC50 was > 100 µM (active).

For `COc1ccc(O)c(-c2cc(-c3ccccc3[N+](=O)[O-])[nH]n2)c1`, which AC50 [7] is on record?
Its AC50 is 4.33 µM (active).

For `COc1ccc(Cn2cnc3c([N+](=O)[O-])c(C)c(C)cc32)cc1`, which IC50 [3] is on record?
Its IC50 is 12.3 µM (active).

For `CCN(CC)c1ccc([C@H]2[C@@H]3CCCC[C@]3(O)CCN2CC(=O)NCc2ccco2)cc1`, which AC50 [7] is on record?
The AC50 was 1.54 µM (active).

For `CCC(=O)N1CCN(c2cc3c(cc2F)c(=O)c(C(=O)O)cn3CC)CC1`, which IC50 (cells) is on record?
Its IC50 is 6.76 µM (active).

For `COC(=O)CN1C(=O)C(O)=C(C(C)=O)C1c1ccc([N+](=O)[O-])cc1` (stereo not given), which IC50 [8] is on record?
Its IC50 is > 100 µM (active).

For `O=C(O)c1ccccc1NC(=O)c1cc(-c2ccccc2)nc2ccccc12`, which AC50 [7] is on record?
The AC50 was 0.703 µM (active).

With `CCOC(=O)N1CCN(C(=O)CCCn2c(=O)[nH]c3ccccc3c2=O)CC1` as the compound, how does the IC50 [3] read?
Its IC50 is 13.2 µM (active).

With `O=C(CCCSc1nc2ccccc2s1)NC1=NCCS1` as the compound, how does the IC50 [3] read?
Its IC50 is 12 µM (active).

For `COc1cc(C(=O)Nc2ccc3ccccc3c2)cc(OC)c1OC`, which EC50 (BJ [9]) is on record?
Its EC50 is 1.44 µM (active).

What about the EC50 (BJ [10]) of the same compound?
The EC50 was > 150 µM (not active).

What about the EC50 [11] of the same compound?
The EC50 was 1.33 µM (active).

And the EC50 (BJ [12])?
The EC50 was 3.2 µM (active).

Which AC50 [5] does the source give for `CCC(C)[C@H](N)c1cn([C@@H](Cc2cc3ccccc3[nH]2)C(=O)N2CCNCC2)nn1` (stereo not given in full) here?
Its AC50 is 8.23 µM (active).

What about the IC50 [13] of the same compound?
The IC50 was > 20 µM (inactive).

Which results are given for `O=C1c2ccccc2S(=O)(=O)c2cc(N3CCOCC3)ccc21`?
IC50 [1]: 10.9 µM (active); IC50 [2]: > 100 µM (inactive); IC50 (Prothrombin): 24 µM (active)

With `CCOc1cc(/C=C2\SC(=S)N(NS(=O)(=O)c3ccc(C)cc3)C2=O)ccc1O` as the compound, how does the IC50 [1] read?
Its IC50 is 36.9 µM (active).

And the IC50 [2]?
Its IC50 is 73.8 µM (active).

What about the IC50 (Prothrombin) of the same compound?
The IC50 was 30.4 µM (active).

With `O=C(c1ccc(-n2cnnn2)cc1)N1CCOCC1` as the compound, how does the IC50 [8] read?
The IC50 was > 100 µM (active).

For `Cc1c(P(=S)(c2ccccc2)c2ccccc2)[n+]2ccccc2n1C`, which IC50 [1] is on record?
Its IC50 is 5.42 µM (active).

And the IC50 [2]?
The IC50 was > 100 µM (inactive).

What about the AC50 [5] of the same compound?
The AC50 was 10.4 µM (active).

What about the IC50 (Prothrombin) of the same compound?
The IC50 was 62.8 µM (active).

For `CC1(C)OC(c2ccccc2)=C/C(=C\C=N\NC(=O)c2ccncc2)O1`, which IC50 (cells) is on record?
Its IC50 is 1.06 µM (active).

For `CCOc1ccc(/C=N/OCC(=O)Nc2ccc3c(c2)OCO3)cc1`, which IC50 (cells) is on record?
The IC50 was 18.1 µM (active).
